Source: article PMC13586173, “Synthetic cannabinoid receptor agonists inhibit the cardiac voltage-gated potassium channel hERG” (Acta Pharmacologica Sinica, 2026)
Entries after “also recorded” stand apart in the source; their conditions may differ. Read-outs that look alike come from different tables or passages of the source.

Columns and labels:
human CB1 receptor = target: T1, human CB1 receptor (Homo sapiens, UniProt P21554); test: AequoScreen intracellular calcium release assay, CHO-K1 cells stably expressing CB1; format: cell-based; settings: for CB1 receptor Efficacy Emax: normalized to maximum of JWH-018
T1 construct: host or cells: CHO-K1 stably expressing CB1, apoaequorin and Gα16

KV7.1/KCNE1 = KV7.1/KCNE1 (Homo sapiens, UniProt P51787); test: Automated patch-clamp (APC, population patch), CHO cells stably expressing human KV7.1/KCNE1; format: cell-based; settings: for Gmax effect on hERG versus KV7.1/KCNE1 (in words): 10 µM, both channels by APC; for KV7.1/KCNE1 channel Efficacy (max reduction in Gmax) Gmin: best fit, 1 = no reduction of Gmax, 0 = complete reduction; for KV7.1/KCNE1 channel Efficacy (max reduction in Gmax) Gmin, marked *: * Greatest efficacy achieved with a concentration between 10 and 30 µM (no fit)
Procedure: Both hERG and KV7.1/KCNE1 contribute to cardiomyocyte repolarization (Fig. 1g). Inhibition of KV7.1/KCNE1 alone can be proarrhythmic. Moreover, under conditions with impaired hERG function, upregulation of KV7.1/KCNE1 has been proposed to partially compensate for the loss of hERG [38, 39]. […] To assess if SCRAs also affect KV7.1/KCNE1, we used mammalian CHO cells stably expressing human KV7.1/KCNE1. […] At 10 µM, 7 of the SCRAs caused a significant positive shift in V50 (Fig. 5e), with the largest shift induced by MDMB-[…] (ΔV50 = +10.3 ± 1.6 mV).
Automated patch-clamp recordings were performed at 22 °C.
For the KV7.1/KCNE1 voltage ladder protocol (SI Table VII) the solutions were present for 60 s before recording started. KV7.1/KCNE1 cells were kept at a holding voltage of −90 mV, with brief hyperpolarizing steps to −100 mV for 540 ms (to calculate ohmic leakage). […] The time between compound application and the first voltage protocol was 60 s. Time between sweeps was 15 s. The voltage ladder protocol was executed every 220 s.
For Gmax (rel.), N was set to –1. For ΔV50, N was set to 1.

hERG (KV11.1) = hERG (KV11.1) (Homo sapiens, UniProt Q12809); test: Automated planar patch-clamp (APC, QPatch II 48), voltage-ladder protocol, CHO cells stably expressing human hERG; settings: for effect on Gmax of hERG (in words): APC concentration-response, 1.11 to 30 µM; for hERG channel Efficacy (max reduction in Gmax) Gmin: 0 = complete reduction
From the text: To assess the effect of a large set of SCRAs on hERG (see SI Table I and SI Fig. S1 for a list of the 36 included SCRAs and corresponding structures), we used the automated planar patch-clamp (APC) technique on mammalian Chinese hamster ovary (CHO) cells stably expressing human hERG. […] We employed a voltage-ladder protocol to obtain information on SCRA effects on the channel’s voltage dependence of activation (V50) and maximal conductance (Gmax) (both determined from Boltzmann fits of the instantaneous tail currents; see Methods for details).
Stably expressing cell lines “CHO-hERG DUO” (here referred to as hERG; gene: KCNH2) and “CHO-KVLQT1/mink” (here referred to as KV7.1/KCNE1; gene: KCNQ1/KCNE1), (B’SYS GmBH, Witterswil, Switzerland) were used to study whole-cell K^+ currents on a QPatch II 48 APC system (Sophion Bioscience A/S, Ballerup, Denmark). Cell culture and passaging were performed in accordance with standard operating procedures. Cells were harvested in serum-free medium with Detachin^TM (Genlantis, CA, USA) immediately prior to experiments. For MPC on transient cell lines, CHO-K1 CCL-61 cells (ATCC, Manassas, VA, USA) were cultured in Ham’s F-12 medium supplemented with 10% fetal bovine serum (FBS) and 100 U/mL penicillin–100 µg/mL streptomycin (Gibco, Thermo Fisher Scientific, Waltham, MA, USA). Transfection was carried out using JetOPTIMUS® reagent (Polyplus, Strasbourg, France) according to the manufacturer’s protocol. Briefly, 80,000 cells were seeded per well in a 12-well plate and transfected with 300 ng of pcDNA3-GFP plasmid, 700 ng of pcDNA3-hERG plasmid with either the wild-type or mutant channels (S624A, S649A, or Y652A), and […] of JetOPTIMUS. After 8 h, cells were detached and reseeded at a density of 30,000 cells per well onto several poly-D-lysine-coated glass coverslips placed in a 12-well plate. For the CB1 receptor activity assay, the AequoScreen® recombinant Chinese hamster ovary (CHO) K1 cell line, stably expressing the human CB1 receptor (ES-110-A), was used (Revvity, Sollentuna, Sweden).
Automated patch-clamp recordings were performed at 22 °C. Freshly harvested cell suspensions (2–3 million cells/mL) were prepared for experiments by the QPatch II 48 automated cell preparation unit. Cells were centrifuged for 150 s at 150 × g and washed twice with the extracellular recording solution. Cells were handled by the integrated pipetting robot and added to the 48 experiment sites on the planar patch-clamp consumable QPlate. Each experiment site contained an individual pair of recording electrodes and a silicon/glass biochip embedded in the flow channels. Single-cell patch recordings (n = 1 is defined as one single-cell patch) and population patch recordings (up to 10 cells per well, n = 1 is defined as one population patch) were performed for hERG and for KV7.1/KCNE1, respectively. Cells were applied, positioned and sealed to the patch holes by a mild suction protocol; whole-cell access was then achieved by a stronger suction pulse.
The intracellular solution contained (in mM): 100 KCl, 4.3 CaCl2, 1.4 MgCl2, 25/10 KOH/EGTA, 24 KF, 10 HEPES, and 4 Mg-ATP (hERG) or 4 Na-ATP (KV7.1/KCNE1). […] The compounds were pre-diluted in DMSO, and the final concentration of DMSO (0.3%) was equal in all recording solutions to control for vehicle effects. The compounds made no contact with plastics following dilution in extracellular solution.
An overview of experimental conditions is provided in SI Table VII, Square voltage pulses in a voltage ladder protocol were used to study current/voltage (I(V)) relationships. Each voltage protocol was first run three times in the presence of vehicle (extracellular solution supplemented with 0.3% DMSO), the 3rd serving as the baseline. Voltage protocols were repeated in the presence of 4 cumulatively rising concentrations of test compound, followed by application of vehicle for recovery.

hERG [1] = settings: cited from earlier work
[2] = rats; cited from earlier work
hERG [3] = settings: cited from earlier work; remark: listed apart in the source
[4] = CB1 receptor Potency EC50, normalized to median EC50 of JWH-018, n ≥ 3 (JWH-030 n = 2)
[5] = experimentally observed effect of 10 µM, used in ORd simulation
[6] = best fit, 1 = no reduction of Gmax, APC, 22 °C
[7] = normalized to median EC50 of JWH-018, n ≥ 3 (JWH-030 n = 2), read-out: CB1 receptor Potency EC50
[8] = read-out: hERG channel Potency IC50 (Gmax reduction), APC, 22 °C, best fit

hERG (KV11.1), sequence (Q12809 whole entry): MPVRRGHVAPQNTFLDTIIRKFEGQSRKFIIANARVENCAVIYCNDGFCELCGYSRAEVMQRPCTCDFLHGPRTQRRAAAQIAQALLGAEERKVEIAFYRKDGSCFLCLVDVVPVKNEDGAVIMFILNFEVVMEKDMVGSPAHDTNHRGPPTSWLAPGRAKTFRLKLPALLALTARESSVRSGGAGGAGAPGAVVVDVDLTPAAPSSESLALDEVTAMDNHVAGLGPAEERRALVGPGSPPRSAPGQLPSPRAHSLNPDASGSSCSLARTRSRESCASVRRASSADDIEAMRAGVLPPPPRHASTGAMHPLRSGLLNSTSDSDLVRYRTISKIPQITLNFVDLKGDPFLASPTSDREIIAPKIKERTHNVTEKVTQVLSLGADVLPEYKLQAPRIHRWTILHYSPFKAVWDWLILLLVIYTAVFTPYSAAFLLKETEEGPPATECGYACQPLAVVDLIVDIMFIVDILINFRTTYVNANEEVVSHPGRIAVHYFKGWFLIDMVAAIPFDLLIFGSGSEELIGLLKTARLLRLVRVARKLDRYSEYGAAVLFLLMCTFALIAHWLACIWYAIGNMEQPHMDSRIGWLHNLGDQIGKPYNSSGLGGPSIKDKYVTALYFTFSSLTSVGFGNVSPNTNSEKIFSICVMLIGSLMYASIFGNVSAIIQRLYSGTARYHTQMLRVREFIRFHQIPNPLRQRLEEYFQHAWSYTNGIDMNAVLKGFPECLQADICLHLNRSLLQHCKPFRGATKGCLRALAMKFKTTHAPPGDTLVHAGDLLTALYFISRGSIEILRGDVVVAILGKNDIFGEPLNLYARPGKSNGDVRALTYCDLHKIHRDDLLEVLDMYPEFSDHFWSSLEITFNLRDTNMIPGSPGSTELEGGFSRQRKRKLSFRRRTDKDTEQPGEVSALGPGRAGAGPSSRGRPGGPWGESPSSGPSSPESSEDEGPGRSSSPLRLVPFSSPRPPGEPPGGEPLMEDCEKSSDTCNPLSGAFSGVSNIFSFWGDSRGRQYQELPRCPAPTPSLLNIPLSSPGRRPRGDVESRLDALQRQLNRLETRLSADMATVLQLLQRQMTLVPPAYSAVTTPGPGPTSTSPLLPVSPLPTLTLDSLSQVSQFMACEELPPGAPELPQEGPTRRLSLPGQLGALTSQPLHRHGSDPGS
KV7.1/KCNE1, sequence (P51787 whole entry): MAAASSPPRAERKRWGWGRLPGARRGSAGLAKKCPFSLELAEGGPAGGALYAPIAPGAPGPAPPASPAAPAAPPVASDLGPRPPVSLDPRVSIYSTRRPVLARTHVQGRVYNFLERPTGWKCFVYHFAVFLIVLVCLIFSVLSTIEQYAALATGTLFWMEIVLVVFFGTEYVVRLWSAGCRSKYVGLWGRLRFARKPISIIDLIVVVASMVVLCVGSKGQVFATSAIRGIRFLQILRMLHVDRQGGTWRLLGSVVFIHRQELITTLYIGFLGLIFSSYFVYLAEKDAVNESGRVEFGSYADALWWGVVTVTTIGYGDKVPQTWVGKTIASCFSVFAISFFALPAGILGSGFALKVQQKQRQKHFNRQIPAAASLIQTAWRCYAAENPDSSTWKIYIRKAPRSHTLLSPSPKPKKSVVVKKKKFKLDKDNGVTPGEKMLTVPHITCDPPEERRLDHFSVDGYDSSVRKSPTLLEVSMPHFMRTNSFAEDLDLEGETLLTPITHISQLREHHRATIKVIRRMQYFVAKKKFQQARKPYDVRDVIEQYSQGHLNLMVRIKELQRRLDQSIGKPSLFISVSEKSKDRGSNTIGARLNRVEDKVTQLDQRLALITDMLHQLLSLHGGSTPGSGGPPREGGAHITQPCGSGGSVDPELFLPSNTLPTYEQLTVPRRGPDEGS
T1 sequence (P21554 whole entry): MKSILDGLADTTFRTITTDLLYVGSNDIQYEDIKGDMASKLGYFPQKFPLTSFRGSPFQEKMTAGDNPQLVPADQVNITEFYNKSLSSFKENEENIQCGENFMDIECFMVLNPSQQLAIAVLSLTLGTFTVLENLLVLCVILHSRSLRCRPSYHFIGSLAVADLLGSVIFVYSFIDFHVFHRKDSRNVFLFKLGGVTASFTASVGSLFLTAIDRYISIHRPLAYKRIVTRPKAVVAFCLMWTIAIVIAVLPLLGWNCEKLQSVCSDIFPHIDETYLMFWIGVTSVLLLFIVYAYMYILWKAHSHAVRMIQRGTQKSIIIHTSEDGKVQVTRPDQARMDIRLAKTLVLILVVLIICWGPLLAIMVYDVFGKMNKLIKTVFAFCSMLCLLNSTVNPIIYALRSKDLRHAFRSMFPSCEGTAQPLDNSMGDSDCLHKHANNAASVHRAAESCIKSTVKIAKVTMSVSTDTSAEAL

## O=C(NC12CC3CC(CC(C3)C1)C2)c1nn(CCCCCF)c2ccccc12 [5F-APINACA]
Human CB1 receptor; [4]
  EC50: 16.6 nM
Human CB1 receptor; n ≥ 3 (JWH-030 n = 2)
  CB1 receptor Efficacy Emax: 102 % JWH-018
KV7.1/KCNE1
  IC50: 35.1 µM
  Gmax effect on hERG versus KV7.1/KCNE1 (in words): only on KV7.1/KCNE1
  KV7.1/KCNE1 channel Efficacy (max reduction in Gmax) Gmin: 0
hERG (KV11.1)
  IC50: > 100 µM
  effect on Gmax of hERG (in words): inhibitory effects on Gmax
hERG (KV11.1); ? Unreliable values (fit failed QC, extrapolated)
  hERG channel Efficacy (max reduction in Gmax) Gmin, marked ?: 0.00
hERG [1]
  hERG inhibition (in words): inhibit hERG
hERG [1]; read-out: hERG IC50, HEK293 cells, 37 °C
  IC50: 2200 nM

## CC(C)(C)[C@H](NC(=O)Cc1cn(Cc2ccc(F)cc2)c2ccccc12)C(N)=O [ADB-FUBIATA]
hERG [1]
  hERG inhibition (in words): inhibit hERG

## CCCCCn1ccc(C(=O)c2cccc3ccccc23)c1 [JWH-030]
Human CB1 receptor; [4]
  EC50: 291 nM
Human CB1 receptor; n ≥ 3 (JWH-030 n = 2)
  CB1 receptor Efficacy Emax: 76.5 % JWH-018
KV7.1/KCNE1
  IC50: 12.2 µM
  KV7.1/KCNE1 channel Efficacy (max reduction in Gmax) Gmin: 0
KV7.1/KCNE1; APC
  effect on KV7.1/KCNE1 (in words): largest reduction in Gmax
KV7.1/KCNE1; [5]
  remaining IKs (KV7.1/KCNE1 Gmax): 49%
[2]
  QT interval (in words): prolongs the QT interval in rats
hERG [3]
  hERG inhibition (in words): inhibits the voltage-gated potassium channel hERG
hERG [3]; read-out: in vitro hERG IC50, test pulse 1 s
  IC50: 88.4 µM
hERG (KV11.1)
  IC50: 23.1 µM
hERG (KV11.1); [6]
  hERG channel Efficacy (max reduction in Gmax) Gmin: 0.00
hERG (KV11.1); [5]
  remaining IKr (hERG Gmax): 74%

## COC(=O)[C@@H](NC(=O)c1cn(CCCCF)c2ccccc12)C(C)(C)C [4F-MDMB-BUTICA]
Human CB1 receptor; n ≥ 3 (JWH-030 n = 2)
  CB1 receptor Efficacy Emax: 115 % JWH-018
Human CB1 receptor; [7]
  EC50: 16.7 nM
KV7.1/KCNE1
  KV7.1/KCNE1 channel Efficacy (max reduction in Gmax) Gmin, marked *: 0.87
hERG (KV11.1); [6]
  hERG channel Efficacy (max reduction in Gmax) Gmin: 0.35
hERG (KV11.1); [8]
  IC50: 26.2 µM

## C=CCCCn1nc(C(=O)NC(C(N)=O)C(C)(C)C)c2ccccc21 (stereo not shown) [ADB-4en-PINACA]
Human CB1 receptor; n ≥ 3 (JWH-030 n = 2)
  CB1 receptor Efficacy Emax: 117 % JWH-018
Human CB1 receptor; [7]
  EC50: 17.4 nM
KV7.1/KCNE1
  KV7.1/KCNE1 channel Efficacy (max reduction in Gmax) Gmin, marked *: 1.13
hERG (KV11.1)
  effect on Gmax of hERG (in words): no or limited effects
hERG (KV11.1); [6]
  hERG channel Efficacy (max reduction in Gmax) Gmin: 0.52
hERG (KV11.1); [8]
  IC50: 9.1 µM

## Cc1ccc(S(=O)(=O)n2nc(C(=O)NC(C)(C)c3ccccc3)c3ccccc32)cc1 [Cumyl-TsINACA]
Human CB1 receptor; n ≥ 3 (JWH-030 n = 2)
  CB1 receptor Efficacy Emax: 106 % JWH-018
Human CB1 receptor; read-out: CB1 receptor Potency EC50
  EC50: 166 nM
KV7.1/KCNE1
  KV7.1/KCNE1 channel Efficacy (max reduction in Gmax) Gmin, marked *: 1.07
hERG (KV11.1); * Greatest efficacy achieved with a concentration between 10 and 30 µM (no fit), 1 = no reduction of Gmax
  hERG channel Efficacy (max reduction in Gmax) Gmin, marked *: 0.94
hERG (KV11.1)
  effect on Gmax of hERG (in words): non-inhibitor

## O=C(N/N=C1\C(=O)N(CCCCCF)c2ccccc21)c1ccccc1 [5F-BZO-POXIZID]
Human CB1 receptor; [4]
  EC50: 193 nM
Human CB1 receptor; n ≥ 3 (JWH-030 n = 2)
  CB1 receptor Efficacy Emax: 113 % JWH-018
KV7.1/KCNE1
  Gmax effect on hERG versus KV7.1/KCNE1 (in words): effects only on hERG
  KV7.1/KCNE1 channel Efficacy (max reduction in Gmax) Gmin, marked *: 0.83
hERG (KV11.1)
  IC50: 0.9 µM
  effect on Gmax of hERG (in words): concentration-dependent inhibitory effects on Gmax; also recorded: prominent inhibitory Gmax effects
hERG (KV11.1); [6]
  hERG channel Efficacy (max reduction in Gmax) Gmin: 0.29
